From patent US20040081663A1, “Pharmaceutical composition for treatment and prevention of cancer and the preparation thereof” (priority 2002, published 2004)

Test system: LLC1 tumor cells (Lewis lung cancer cell line)
Experiment: Lewis lung (LLC) peritoneal carcinomatosis model, tumor resistance test
Format: in vivo, C57BL/6J mice
Settings: for number of mice with tumors: 5 mice per group, 26th day, control: all mice; for average size of tumors (width times length): injected daily for 13 days, sacrificed on 26th day, control 12.38
From the text: Lewis lung (LLC) peritoneal carcinomatosis model was used for treatment and prevention of cancer in vivo animal tests, referring to Bertram J S, Janik P., Cancer Lett 1980 November;11(1):63-73; Hirazumi A, Furusawa E. Phytother Res. 1999 August;13(5):380-7; Itoh H, Noda H, Amano H, Ito H. Anticancer Res. 1995 September-October;15(5B):1937-47; Wallace P K, Morahan P S., J Leukoc Biol. 1994 July;56(1) :41-51.; Redmond HP, Schuchter L, Bartlett D, Kelly C J, Shou J, Leon P, Daly J M. , J Surg Res. 1992 April;52(4):406-11; Kagawa K, Yamashita T, Tsubura E, Yamamura Y., Cancer Res. 1984 February;44(2):665-70; and Yamamoto T, Yamashita T, Tsubura E., Invasion Metastasis. 1981; 1(1) :71-84.
Twenty male C57BL/6J mice of two month old were separated into four groups for 5 mice/each. Each mouse was inoculated with 1×10^5 LLC1 tumor cells (Lewis lung cancer cell line) by abdominal injection around the thigh on the first day, i.e. day 0. Each group of mice was treated differently for 13 days as described below and treatment was stopped for 12 days. The mice were sacrificed on the 26th day. The abdomen of each mouse was dissected to examine the tumor size. The size of tumor was defined as width times length.
5 mice were used as the control group. The mice in the control group were injected daily with 100 microliters of saline with propylene glycol (3.05 μl propylene glycol in 100 ml normal saline) for 13 days. The treatment was stopped for 12 days and the mice were sacrificed on the 26th day after inoculation with LLC1 tumor cells. All mice had tumors with an average size of 12.38.
Authentic lovastatin sample was prepared and dissolved in saline with […] as indicated above. The dose amount for administration was adjusted according to mice body weight. The dose amount indicated was the proportional equivalent of lovastatin for human subjects of 60 Kg body weight.
Five C57BL/6J mice were inoculated with 1×10^5 LLC1 cells on day 0 as described above. Lovastatin equivalent of 80 mg/person was injected daily on the other side of the abdomen every day for 13 days. The treatment was stopped for 12 days and the mice were sacrificed on the 26th day after inoculation of LLC1 tumor cells. All mice had tumors with an average size of 9.96.
The same procedures of L80 were followed except that the dose amount for administration was changed to 200 mg/day/person equivalent. Three mice had tumors with an average size of 6.8.
The liquid fermentation product obtained from sample 2 was centrifuged 10,000 rpm for 20 minutes. The supernatant was collected and further filtrated with a 0.2 micron filter in sterile condition. The concentration of lovastatin in the derived filtrate was detected as 0.45 mg/ml. The dose amount for administration was adjusted according to mice body weight. The equivalent amount of lovastatin for human subjects was used for mice tumor resistance tests as indicated.
The same procedures of example L80 were followed except that the sample was Monascus composition. The dose amount for administration was equivalent to 80 mg lovastatin/day/person. The filtrate was administrated in the ratio of 60 μl filtrate to 40 μl saline.
The same procedures of example M80 were followed except that the administration sample was Monascus composition. The dose amount for administration was equivalent to 200 mg lovastatin/day/person. The filtrate was administrated in the ratio of 60 μl filtrate to 40 μl saline.

[1] = dose equivalent to 80 mg lovastatin/day/person
[2] = dose equivalent to 200 mg lovastatin/day/person

Which results are given for `CC[C@H](C)C(=O)O[C@H]1C[C@@H](C)C=C2C=C[C@H](C)[C@H](CC[C@@H]3C[C@@H](O)CC(=O)O3)[C@H]21` [Lovastatin, lovastatin]?
number of mice with tumors [1]: All; average size of tumors (width times length) [1]: 9.96; number of mice with tumors [2]: Three; average size of tumors (width times length) [2]: 6.8; tumor size (FIG. 6), in words (higher dose of lovastatin (L200) and Monascus compositions M80 and M200): smaller tumor sizes
